{"source": "patent US20090053721A1", "about": "“VOLTAGE-GATED ION CHANNEL MUTANTS FOR USE IN IDENTIFYING ION CHANNEL MODULATING COMPOUNDS” (CARDIOME PHARMA CORP., priority 2007, published 2009)", "assay_in_all_cases": "Whole-cell patch-clamp block of mutant Kv1.5 current in HEK293 cells", "format_in_all_cases": "cell-based", "details_in_all_cases": "10 μM vernakalant", "key": {"[1]": {"molecular_target": "T1, Kv1.5 A509G mutant channel (Homo sapiens, UniProt P22460, A509G)", "T1 construct": "subcloned as a fragment back into full-length Kv1.5; expressed in transfected cells; host or cells: HEK293, transient transfection", "T1 sequence (P22460 whole entry A509G, the tested form may be a part)": "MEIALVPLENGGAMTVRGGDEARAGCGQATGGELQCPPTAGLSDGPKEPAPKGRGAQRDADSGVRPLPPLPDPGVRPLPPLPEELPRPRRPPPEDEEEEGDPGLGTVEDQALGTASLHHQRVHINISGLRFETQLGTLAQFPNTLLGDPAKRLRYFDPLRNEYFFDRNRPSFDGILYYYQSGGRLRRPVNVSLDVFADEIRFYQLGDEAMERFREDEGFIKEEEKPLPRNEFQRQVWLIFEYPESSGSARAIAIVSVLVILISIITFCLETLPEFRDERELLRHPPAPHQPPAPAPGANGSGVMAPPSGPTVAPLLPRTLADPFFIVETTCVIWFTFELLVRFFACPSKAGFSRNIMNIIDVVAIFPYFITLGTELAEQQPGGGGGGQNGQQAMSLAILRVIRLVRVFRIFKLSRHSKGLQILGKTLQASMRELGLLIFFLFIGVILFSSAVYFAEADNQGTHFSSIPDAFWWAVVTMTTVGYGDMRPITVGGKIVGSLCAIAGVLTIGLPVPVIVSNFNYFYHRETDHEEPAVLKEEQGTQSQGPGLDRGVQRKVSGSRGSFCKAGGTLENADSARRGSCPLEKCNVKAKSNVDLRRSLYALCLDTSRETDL", "source_text": "(§1) Stable lines of HEK293 cells expressing Kv1.5, or transient transfection of mutant Kv1.5 channels were used in all experiments. Primers to generate mutant channels were synthesized by Integrated DNA Technologies, Inc. (Coralville, Iowa, USA), and mutants were generated using the Stratagene Quikchange kit (Stratagene, Calif., USA). The presence of the mutation was confirmed by DNA sequencing, and because of the size of the WT Kv1.5 clone, only the sequenced region harboring the targeted nucleotides was subcloned as a fragment back into full-length Kv1.5. Transient transfections were performed with HEK 293 cells plated at 20-30% confluency on sterile coverslips in 25 mm Petri dishes one day prior to transfection. 0.1-4 μg of ion channel DNA was incubated with 1 μg of eGFP DNA (to enable detection of transfected cells) and 2 μl of lipofectamine 2000 (Invitrogen) in 100 μl of Opti-MEM. This was added to the cells for overnight incubation after washing the media with 900 μl of MEM with 10% FBS.\n(§2) The cells were grown in Minimal Essential Medium (MEM) at 37° C. in an air/5% CO2 incubator. Media contained 10% bovine serum and 0.5 mg/ml geneticin for stable lines. On the day before recording, stably-expressing cells were washed with MEM, treated with trypsin/EGTA for one minute and plated on 25 mm^2 coverslips. All cell culture supplies were obtained from Invitrogen (Mississauga, ON, Canada).\n(§3) Control bath solution contained (in mM): 5 KCl, 135 NaCl, 2.8 sodium acetate, 1 MgCl2, 10 HEPES and 1 CaCl2, adjusted to pH 7.4 with NaOH. Patch pipettes contained (in mM): 130 KCl, 5 EGTA, 1 MgCl2, 10 HEPES, 4 Na2ATP, and 0.1 GTP, adjusted to pH 7.2 with KOH. […]\n(§4) Coverslips with adherent cells plated on the surface were placed in a superfusion chamber (volume 300 μl) containing the control bath solution at 22° C. […] To assess drug block, half-log escalating concentrations of drug were added to the flowing bath solution and current traces were recorded with 400 ms depolarizing pulses to +60 mV at a frequency of 0.1 Hz. […]"}, "[2]": {"molecular_target": "T2, Kv1.5 V481L mutant channel (Homo sapiens, UniProt P22460, V481L)", "T2 construct": "subcloned as a fragment back into full-length Kv1.5; expressed in transfected cells; host or cells: HEK293, transient transfection", "T2 sequence (P22460 whole entry V481L, the tested form may be a part)": "as the sequence (P22460 whole entry A509G, the tested form may be a part) above, with V481L, G509A counted along it", "source_text": "as §1, §2, §3, §4"}, "[3]": {"molecular_target": "T3, Kv1.5 V512L mutant channel (Homo sapiens, UniProt P22460, V512L)", "T3 construct": "subcloned as a fragment back into full-length Kv1.5; expressed in transfected cells; host or cells: HEK293, transient transfection", "T3 sequence (P22460 whole entry V512L, the tested form may be a part)": "as the sequence (P22460 whole entry A509G, the tested form may be a part) above, with G509A, V512L counted along it", "source_text": "as §1, §2, §3, §4"}}, "note": "Structures can show the parent of a compound that is named as a salt.", "data": [{"smiles": "COc1ccc(CCO[C@@H]2CCCC[C@H]2N2CC[C@@H](O)C2)cc1OC", "note": "[Vernakalant, 3-Pyrrolidinol, 1-[(1R,2R)-2-[2-(3,4-dimethoxyphenyl)ethoxy]cyclohexyl]-,hydrochloride, (3R)]", "values": [{"measurement": "Fractional Block ± SEM", "setting": "[1]", "value": "0.33 ± 0.07"}, {"measurement": "Fractional Block ± SEM", "setting": "[2]", "value": "0.36 ± 0.03"}, {"measurement": "Fractional Block ± SEM", "setting": "[3]", "value": "0.56 ± 0.04"}]}]}
